According to publication PMC11191095, “QSAR Reveals Decreased Lipophilicity of Polar Residues Determines the Selectivity of Antimicrobial Peptide Activity” (ACS Omega, 2024):
Where a SMILES comes first, the peptide text is derived from it.

Key:
Test in all cases: microbe, parasite or virus in culture
E. coli LEC001 = format: cell-based, Escherichia coli; settings: E. coli LEC001 (R); shown in µM
Outline: (§1)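 Peptides 128→2 μg/mL, 2-fold series; inoculum ~5 × 10^5 CFU/mL from overnight culture (OD600 0.01, mixed 1:1). MHB non-cation-adjusted for bacteria, RPMI 1640 + 2% glucose for fungi. 37 °C, 20 h, OD600. MIC50/MIC90 at 50%/90% inhibition; n ≥ 3.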

E. coli NCTC 12923 = format: cell-based, Escherichia coli; settings: E. coli NCTC 12923 (S); shown in µM
Outline: as §1

P. aeruginosa NCTC 13437 = format: cell-based, Pseudomonas aeruginosa; settings: P. aeruginosa NCTC 13437 (R)
Method: (§2) Antimicrobial activity was evaluated against a panel of 18 pathogens consisting of eight Gram-negative strains (E. coli NCTC 12923, E. coli LEC001, Pseudomonas aeruginosa PAO1, P. aeruginosa NCTC 13437, Acinetobacter baumannii ATCC 17978, A. baumannii AYE, Klebsiella pneumoniae M6, K. pneumoniae NCTC 13368), four Gram-positive strains (Staphylococcus aureus ATCC 9144, S. aureus NCTC 13616, S. aureus USA300, S. aureus 1199B) and six fungi (Candida auris TDG 1912, C. albicans NCPF 8018, C. krusei NCPF 3876, C. tropicalis NCPF 8760, and C. parapsilosis NCPF 3209). Pathogens were grown in noncation adjusted Mueller Hinton broth (MHB, for bacteria) or Roswell Park Memorial Institute (RPMI 1640) + 2% glucose (for fungi) at 37 °C with 180 rpm shaking and maintained on solid media (tryptic soy agar for bacteria and Sabouraud dextrose agar for fungi). For an antibiogram, see Suppl.
(§3) The 46 peptides were serially diluted (128 to 2 μg/mL) in media down polypropylene 96-well plates. Bacteria or fungi, diluted from an overnight culture to an OD600 of 0.01, were added to the serially diluted peptides at a 1:1 ratio resulting in a starting cell density of ∼5 × 10^5 CFU/mL. Plates were incubated at 37 °C for 20 h, and the optical density was determined spectrophotometrically at 600 nm. Minimum inhibition concentrations (MICs) were determined from a minimum of three biological repeats and are reported in μg/mL as well as μM. […] The MIC50 or MIC90 is defined as the lowest peptide concentration that results in 50% or 90% growth inhibition over a 20 h treatment period, respectively.

P. aeruginosa PAO1 = format: cell-based, Pseudomonas aeruginosa; settings: P. aeruginosa PAO1 (S); shown in µM
Method: as §2, §3

A. baumannii ATCC 17978 = format: cell-based, Acinetobacter baumannii; settings: A. baumannii ATCC 17978 (S); shown in µM
Outline: as §1

A. baumannii AYE = format: cell-based, Acinetobacter baumannii; settings: A. baumannii AYE (R); shown in µM
Outline: as §1

K. pneumoniae M6 = format: cell-based, Klebsiella pneumoniae; settings: K. pneumoniae M6 (S)
Method: as §2, §3

K. pneumoniae NCTC 13368 = format: cell-based, Klebsiella pneumoniae; settings: K. pneumoniae NCTC 13368 (R)
Method: as §2, §3

S. aureus (MRSA) 1199B = format: cell-based, Staphylococcus aureus; settings: S. aureus (MRSA) 1199B (R)
Outline: as §1

[1] = tested on: S. aureus (MRSA) NCTC 13616; format: cell-based, Staphylococcus aureus; settings: S. aureus (MRSA) NCTC 13616 (R)
Outline: as §1

S. aureus (MRSA) USA300 = format: cell-based, Staphylococcus aureus; settings: S. aureus (MRSA) USA300 (R)
Outline: as §1

[2] = tested on: S. aureus (MSSA) ATCC 9144; format: cell-based, Staphylococcus aureus; settings: S. aureus (MSSA) ATCC 9144 (S); shown in µM
Outline: as §1

C. auris TDG 1912 = format: cell-based, Candida auris; settings: C. auris TDG 1912
Outline: as §1

C. albicans NCPF 3281 = format: cell-based; settings: C. albicans NCPF 3281
Outline: as §1

C. glabrata NCPF 8018 = format: cell-based; settings: C. glabrata NCPF 8018
Outline: as §1

C. krusei NCPF 3876 = format: cell-based; settings: C. krusei NCPF 3876
Outline: as §1

[3] = tested on: C. parapsilosis NCPF 3209; format: cell-based; settings: C. parapsilosis NCPF 3209
Outline: as §1

C. tropicalis NCPF 8760 = format: cell-based; settings: C. tropicalis NCPF 8760
Outline: as §1

[4] = MHB, 37 °C, 20 h, OD600, min. three biological repeats
[5] = 50% growth inhibition, RPMI 1640 + 2% glucose, 37 °C, 20 h, OD600
[6] = 90% growth inhibition, RPMI 1640 + 2% glucose, 37 °C, 20 h, OD600
[7] = 50% growth inhibition, RPMI 1640 + 2% glucose, 37 °C, 20 h
[8] = 90% growth inhibition, RPMI 1640 + 2% glucose, 37 °C, 20 h

CC(C)C[C@H](NC(=O)[C@H](CCCCN)NC(=O)[C@H](CCCCN)NC(=O)[C@H](C)NC(=O)[C@H](CC(C)C)NC(=O)[C@H](CCCCN)NC(=O)[C@H](CO)NC(=O)[C@H](CCCCN)NC(=O)[C@H](Cc1c[nH]c2ccccc12)NC(=O)[C@H](C)NC(=O)[C@H](CCCCN)NC(=O)[C@H](CCCCN)NC(=O)[C@H](CC(C)C)NC(=O)[C@H](Cc1ccccc1)NC(=O)[C@H](CO)NC(=O)CN)C(N)=O [PS-PB-16a] (H-GSFLKKAWKSKLAKKL-NH2)
Modal MIC (E. coli LEC001): 33.9 µM | Modal MIC (E. coli NCTC 12923): 8.5 µM | Modal MIC (P. aeruginosa NCTC 13437; shown in µM): 67.8 µM | Modal MIC (P. aeruginosa PAO1): 33.9 µM | Modal MIC (A. baumannii ATCC 17978): 8.5 µM | Modal MIC (A. baumannii AYE): 17 µM | Modal MIC (K. pneumoniae M6; [4]): > 128 µg/mL | Modal MIC (K. pneumoniae M6; shown in µM): > 67.8 µM | Modal MIC (K. pneumoniae NCTC 13368; [4]): > 128 µg/mL | Modal MIC (K. pneumoniae NCTC 13368; shown in µM): > 67.8 µM | Modal MIC (S. aureus (MRSA) 1199B; [4]): > 128 µg/mL | Modal MIC (S. aureus (MRSA) 1199B; shown in µM): > 67.8 µM | Modal MIC [1, 4]: > 128 µg/mL | Modal MIC ([1]; shown in µM): > 67.8 µM | Modal MIC (S. aureus (MRSA) USA300; [4]): > 128 µg/mL | Modal MIC (S. aureus (MRSA) USA300; shown in µM): > 67.8 µM | Modal MIC [2]: 17 µM | Modal MIC50 (C. auris TDG 1912; [5]): > 128 µg/mL | Modal MIC90 (C. auris TDG 1912; [6]): > 128 µg/mL | Modal MIC50 (C. auris TDG 1912; shown in µM): > 67.8 µM | Modal MIC90 (C. auris TDG 1912; shown in µM): > 67.8 µM | Modal MIC50 (C. albicans NCPF 3281; [7]): > 128 µg/mL | Modal MIC90 (C. albicans NCPF 3281; [8]): > 128 µg/mL | Modal MIC50 (C. albicans NCPF 3281; shown in µM): > 67.8 µM | Modal MIC90 (C. albicans NCPF 3281; shown in µM): > 67.8 µM | Modal MIC50 (C. glabrata NCPF 8018; [7]): > 128 µg/mL | Modal MIC90 (C. glabrata NCPF 8018; [8]): > 128 µg/mL | Modal MIC50 (C. glabrata NCPF 8018; shown in µM): > 67.8 µM | Modal MIC90 (C. glabrata NCPF 8018; shown in µM): > 67.8 µM | Modal MIC50 (C. krusei NCPF 3876; [7]): > 128 µg/mL | Modal MIC90 (C. krusei NCPF 3876; [8]): > 128 µg/mL | Modal MIC50 (C. krusei NCPF 3876; shown in µM): > 67.8 µM | Modal MIC90 (C. krusei NCPF 3876; shown in µM): > 67.8 µM | Modal MIC50 [3, 7]: > 128 µg/mL | Modal MIC90 [3, 8]: > 128 µg/mL | Modal MIC50 ([3]; shown in µM): > 67.8 µM | Modal MIC90 ([3]; shown in µM): > 67.8 µM | Modal MIC50 (C. tropicalis NCPF 8760; [7]): > 128 µg/mL | Modal MIC90 (C. tropicalis NCPF 8760; [8]): > 128 µg/mL | Modal MIC50 (C. tropicalis NCPF 8760; shown in µM): > 67.8 µM | Modal MIC90 (C. tropicalis NCPF 8760; shown in µM): > 67.8 µM

CC(C)C[C@H](NC(=O)[C@H](CCCCN)NC(=O)[C@H](CO)NC(=O)[C@H](CCCCN)NC(=O)[C@H](Cc1c[nH]c2ccccc12)NC(=O)[C@H](C)NC(=O)[C@H](CCCCN)NC(=O)[C@H](CCCCN)NC(=O)[C@H](CC(C)C)NC(=O)[C@H](Cc1ccccc1)NC(=O)[C@H](CO)NC(=O)CN)C(=O)N[C@@H](C)C(=O)N[C@@H](CCCCN)C(=O)N[C@@H](CCCCN)C(=O)N[C@@H](CC(C)C)C(=O)N[C@@H](CCCNC(=N)N)C(=O)N[C@@H](C)C(=O)N[C@@H](CCCCN)C(=O)NCC(N)=O [PS-PB-20a] (H-GSFLKKAWKSKLAKKLRAKG-NH2)
Modal MIC (E. coli LEC001): 27.8 µM | Modal MIC (E. coli NCTC 12923): 13.9 µM | Modal MIC (P. aeruginosa NCTC 13437; [4]): > 128 µg/mL | Modal MIC (P. aeruginosa NCTC 13437; shown in µM): > 55.7 µM | Modal MIC (P. aeruginosa PAO1): 55.7 µM | Modal MIC (A. baumannii ATCC 17978): 3.5 µM | Modal MIC (A. baumannii AYE): 13.9 µM | Modal MIC (K. pneumoniae M6; [4]): > 128 µg/mL | Modal MIC (K. pneumoniae M6; shown in µM): > 55.7 µM | Modal MIC (K. pneumoniae NCTC 13368; [4]): > 128 µg/mL | Modal MIC (K. pneumoniae NCTC 13368; shown in µM): > 55.7 µM | Modal MIC (S. aureus (MRSA) 1199B; [4]): > 128 µg/mL | Modal MIC (S. aureus (MRSA) 1199B; shown in µM): > 55.7 µM | Modal MIC [1, 4]: > 128 µg/mL | Modal MIC ([1]; shown in µM): > 55.7 µM | Modal MIC (S. aureus (MRSA) USA300; [4]): > 128 µg/mL | Modal MIC (S. aureus (MRSA) USA300; shown in µM): > 55.7 µM | Modal MIC [2]: 3.5 µM | Modal MIC50 (C. auris TDG 1912; [5]): > 128 µg/mL | Modal MIC90 (C. auris TDG 1912; [6]): > 128 µg/mL | Modal MIC50 (C. auris TDG 1912; shown in µM): > 55.7 µM | Modal MIC90 (C. auris TDG 1912; shown in µM): > 55.7 µM | Modal MIC50 (C. albicans NCPF 3281; [7]): > 128 µg/mL | Modal MIC90 (C. albicans NCPF 3281; [8]): > 128 µg/mL | Modal MIC50 (C. albicans NCPF 3281; shown in µM): > 55.7 µM | Modal MIC90 (C. albicans NCPF 3281; shown in µM): > 55.7 µM | Modal MIC50 (C. glabrata NCPF 8018; [7]): > 128 µg/mL | Modal MIC90 (C. glabrata NCPF 8018; [8]): > 128 µg/mL | Modal MIC50 (C. glabrata NCPF 8018; shown in µM): > 55.7 µM | Modal MIC90 (C. glabrata NCPF 8018; shown in µM): > 55.7 µM | Modal MIC90 (C. krusei NCPF 3876; [8]): > 128 µg/mL | Modal MIC50 (C. krusei NCPF 3876; shown in µM): 55.7 µM | Modal MIC90 (C. krusei NCPF 3876; shown in µM): > 55.7 µM | Modal MIC50 [3, 7]: > 128 µg/mL | Modal MIC90 [3, 8]: > 128 µg/mL | Modal MIC50 ([3]; shown in µM): > 55.7 µM | Modal MIC90 ([3]; shown in µM): > 55.7 µM | Modal MIC50 (C. tropicalis NCPF 8760; shown in µM): 27.8 µM | Modal MIC90 (C. tropicalis NCPF 8760; shown in µM): 27.8 µM
